The results in this text go back to US20210392895A1, “NOVEL OXADIAZOLES” (PI INDUSTRIES LIMITED, priority 2018, published 2021).

Counter-ions that a name gives are not always drawn.

One test concerns Pyricularia oryzae. Put plainly: microbe, parasite or virus in culture. Format: cell-based. The settings on record: 168 h, read-out: control.
On to `CCS(=O)(=O)N1CC[C@H](Oc2ccc(-c3noc(C(F)(F)F)n3)cc2)C1` [Compound 40, (S)-3-(4-((1-(ethylsulfonyl)pyrrolidin-3-yl)oxy)phenyl)-5-(trifluoromethyl)-1,2,4-oxadiazole], for which the inhibition of growth at 300 ppm is over 70%.
On the same count and under the same terms, as for `O=C(c1ccncc1)N1CC[C@@H](Oc2ccc(-c3noc(C(F)(F)F)n3)cn2)C1` [Compound 78, (R)-pyridin-4-yl(3-((5-(5-(trifluoromethyl)-1,2,4-oxadiazol-3-yl)pyridin-2-yl)oxy)pyrrolidin-1-yl)methanone], the figure is over 70%.
Same read-out and setting: as for `CC(=O)N1CC(N(c2ccc(-c3noc(C(F)(F)F)n3)cc2)c2ccc(-c3noc(C(F)(F)F)n3)cc2)C1` [Compound 90, 1-(3-(bis(4-(5-(trifluoromethyl)-1,2,4-oxadiazol-3-yl)phenyl)amino)azetidin-1-yl)ethan-1-one], the figure is over 70%.
Still for that read-out and setting: as for `O=C(c1ccccc1F)N1CCC(Oc2ccc(-c3noc(C(F)(F)F)n3)cc2)CC1` [Compound 92, (2-fluorophenyl)(4-(4-(5-(trifluoromethyl)-1,2,4-oxadiazol-3-yl)phenoxy)piperidin-1-yl)methanone], the figure is over 70%; as for `Cc1ccc(C(=O)N2CCC(Oc3cccc(-c4noc(C(F)(F)F)n4)c3)C2)cc1` (stereo not shown) [Compound 135, p-tolyl(3-(3-(5-(trifluoromethyl)-1,2,4-oxadiazol-3-yl)phenoxy)pyrrolidin-1-yl)methanone], over 70%.
`CN(c1ccc(-c2noc(C(F)(F)F)n2)cc1)C1CCN(C(=O)OC(C)(C)C)C1` (stereo not shown) [Compound 167, tert-butyl 3-(methyl(4-(5-(trifluoromethyl)-1,2,4-oxadiazol-3-yl)phenyl)amino)pyrrolidine-1-carboxylate]: the inhibition of growth at 300 ppm is over 70%.
For the molecule `Cc1cccc(C(=O)N2CC[C@@H](Sc3ccc(-c4noc(C(F)(F)F)n4)cc3)C2)c1` [Compound 172, (R)-m-tolyl(3-((4-(5-(trifluoromethyl)-1,2,4-oxadiazol-3-yl)phenyl)thio)pyrrolidin-1-yl)methanone], the inhibition of growth at 300 ppm is over 70%.
The same measure, in the same setting: as for `O=C(c1ccccc1)N1CC[C@@H](Sc2ccc(-c3noc(C(F)(F)F)n3)cc2)C1` [Compound 177, (R)-phenyl(3-((4-(5-(trifluoromethyl)-1,2,4-oxadiazol-3-yl)phenyl)thio)pyrrolidin-1-yl)methanone], the figure is over 70%.

For a further test, the system named is Phakopsora pachyrhizi. Put plainly: Phakopsora pachyrhizi test in soybean (greenhouse, preventive activity, disease severity rating). Format: in vivo. As to conditions: preventive spray on soybean, compared to the untreated check. How it is done: To test the preventive activity of compounds, healthy young soybean plants, raised in the greenhouse, were sprayed with the active compound solution at the stated application rates inside spray cabinets using hallowcone nozzles. One day after treatment, the plants were inoculated with a suspension containing 2.1×10^6 Phakopsora pachyrhizi spores. The inoculated plants were then kept in the greenhouse chamber at 25° C. temperature and 90% relative humidity for disease expression. A visual assessment of the compound's performance was carried out by rating the disease severity (0-100% scale) on treated plants on 3, 7, 10 and 15 days after application. Efficacy (% control) of the compounds was calculated by comparing the disease rating in the treatment with the one of the untreated control. The treated plants were also assessed for plant compatibility by recording symptoms like necrosis, chlorosis and stunting.
Take `O=S(=O)(c1ccc(Br)cc1)N1CC[C@H](Oc2ccc(-c3noc(C(F)(F)F)n3)cc2)C1` [Compound 116, (S)-3-(4-((1-((4-bromophenyl)sulfonyl)pyrrolidin-3-yl)oxy)phenyl)-5-(trifluoromethyl)-1,2,4-oxadiazole]: the pest or weed control at 500 ppm is over 70%.
Still for that read-out and setting: as for `O=S(=O)(c1ccc(Cl)cc1Cl)N1CC[C@H](Oc2ccc(-c3noc(C(F)(F)F)n3)cc2)C1` [Compound 120, (S)-3-(4-((1-((2,4-dichlorophenyl)sulfonyl)pyrrolidin-3-yl)oxy)phenyl)-5-(trifluoromethyl)-1,2,4-oxadiazole], the figure is over 70%.
Still for that read-out and setting: as for `N#Cc1ccc(S(=O)(=O)N2CC[C@H](Oc3ccc(-c4noc(C(F)(F)F)n4)cc3)C2)cc1` [Compound 121, (S)-4-((3-(4-(5-(trifluoromethyl)-1,2,4-oxadiazol-3-yl)phenoxy)pyrrolidin-1-yl)sulfonyl)benzonitrile], the figure is over 70%.
The same measure, in the same setting: as for `O=S(=O)(c1cccc(Cl)c1)N1CC[C@H](Oc2ccc(-c3noc(C(F)(F)F)n3)cc2)C1` [Compound 122, (S)-3-(4-((1-((3-chlorophenyl)sulfonyl)pyrrolidin-3-yl)oxy)phenyl)-5-(trifluoromethyl)-1,2,4-oxadiazole], the figure is over 70%.
In turn, `CN(c1ccc(-c2noc(C(F)(F)F)n2)cc1)C1CN(C(=O)c2ccc(F)cc2)C1` [Compound 124, (4-fluorophenyl)(3-(methyl(4-(5-(trifluoromethyl)-1,2,4-oxadiazol-3-yl)phenyl)amino)azetidin-1-yl)methanone] had a pest or weed control at 500 ppm of over 70%.
On the same count and under the same terms, as for `CC(C)(C)OC(=O)N1CCC(Oc2cccc(-c3noc(C(F)(F)F)n3)c2)C1` (stereo not shown) [Compound 127, tert-butyl 3-(3-(5-(trifluoromethyl)-1,2,4-oxadiazol-3-yl)phenoxy)pyrrolidine-1-carboxylate], the figure is over 70%.
In turn, `FC(F)(F)c1nc(-c2cccc(OC3CCNC3)c2)no1` (stereo not shown) [Compound 128, 3-(3-(pyrrolidin-3-yloxy)phenyl)-5-(trifluoromethyl)-1,2,4-oxadiazole hydrochloride] came in with a pest or weed control at 500 ppm of over 70%.
On the same count and under the same terms, as for `CN(c1ccc(-c2noc(C(F)(F)F)n2)cc1)C1CN(C(=O)C(C)(C)C)C1` [Compound 129, 2,2-dimethyl-1-(3-(methyl(4-(5-(trifluoromethyl)-1,2,4-oxadiazol-3-yl)phenyl)amino)azetidin-1-yl)propan-1-one], the figure is over 70%.
The same measure, in the same setting: as for `CC(C)(C)C(=O)N1CCC(Oc2cccc(-c3noc(C(F)(F)F)n3)c2)C1` (stereo not shown) [Compound 130, 2,2-dimethyl-1-(3-(3-(5-(trifluoromethyl)-1,2,4-oxadiazol-3-yl)phenoxy)pyrrolidin-1-yl)propan-1-one], the figure is over 70%; as for `O=C(c1ccc(F)cc1)N1CCC(Oc2ccc(-c3noc(C(F)(F)F)n3)cc2)CC1` [Compound 142, (4-fluorophenyl)(4-(4-(5-(trifluoromethyl)-1,2,4-oxadiazol-3-yl)phenoxy)piperidin-1-yl)methanone], over 70%.
Same read-out and setting: as for `O=C(c1ccc(C(F)(F)F)cc1)N1CCC(Oc2cccc(-c3noc(C(F)(F)F)n3)c2)C1` (stereo not shown) [Compound 143, (3-(3-(5-(trifluoromethyl)-1,2,4-oxadiazol-3-yl)phenoxy)pyrrolidin-1-yl)(4-(trifluoromethyl)phenyl)methanone], the figure is over 70%; as for `O=C(c1cccc(Cl)c1)N1CCC(Oc2cccc(-c3noc(C(F)(F)F)n3)c2)C1` (stereo not shown) [Compound 144, (3-chlorophenyl)(3-(3-(5-(trifluoromethyl)-1,2,4-oxadiazol-3-yl)phenoxy)pyrrolidin-1-yl)methanone], over 70%; as for `O=C(Cc1ccc(Cl)cc1)N1CCC(Oc2ccc(-c3noc(C(F)(F)F)n3)cc2)CC1` [Compound 145, 2-(4-chlorophenyl)-1-(4-(4-(5-(trifluoromethyl)-1,2,4-oxadiazol-3-yl)phenoxy)piperidin-1-yl)ethan-1-one], over 70%.
`COc1ccc(C(=O)N2CCC(Oc3cccc(-c4noc(C(F)(F)F)n4)c3)C2)cc1` (stereo not shown) [Compound 146, (4-methoxyphenyl)(3-(3-(5-(trifluoromethyl)-1,2,4-oxadiazol-3-yl)phenoxy)pyrrolidin-1-yl)methanone] registered a pest or weed control at 500 ppm of over 70%.
The same measure, in the same setting: as for `Cc1ccsc1S(=O)(=O)N1CC[C@H](Oc2ccc(-c3noc(C(F)(F)F)n3)cc2)C1` [Compound 147, (S)-3-(4-((1-((3-methylthiophen-2-yl)sulfonyl)pyrrolidin-3-yl)oxy)phenyl)-5-(trifluoromethyl)-1,2,4-oxadiazole], the figure is over 70%.
On the same count and under the same terms, as for `Cn1cnc(S(=O)(=O)N2CC[C@H](Oc3ccc(-c4noc(C(F)(F)F)n4)cc3)C2)c1` [Compound 148, (S)-3-(4-((1-((1-methyl-1H-imidazol-4-yl)sulfonyl)pyrrolidin-3-yl)oxy)phenyl)-5-(trifluoromethyl)-1,2,4-oxadiazole], the figure is over 70%; as for `O=S(=O)(c1cccc(F)c1)N1CC[C@H](Oc2ccc(-c3noc(C(F)(F)F)n3)cn2)C1` [Compound 149, (S)-3-(6-((1-((3-fluorophenyl)sulfonyl)pyrrolidin-3-yl)oxy)pyridin-3-yl)-5-(trifluoromethyl)-1,2,4-oxadiazole], over 70%; as for `N#Cc1ccc(S(=O)(=O)N2CC[C@H](Oc3ccc(-c4noc(C(F)(F)F)n4)cn3)C2)cc1` [Compound 150, (S)-4-((3-((5-(5-(trifluoromethyl)-1,2,4-oxadiazol-3-yl)pyridin-2-yl)oxy)pyrrolidin-1-yl)sulfonyl)benzonitrile], over 70%.
Still for that read-out and setting: as for `O=S(=O)(c1cccc(C(F)(F)F)c1)N1CC[C@H](Oc2ccc(-c3noc(C(F)(F)F)n3)cn2)C1` [Compound 151, (S)-5-(trifluoromethyl)-3-(6-((1-((3-(trifluoromethyl)phenyl)sulfonyl)pyrrolidin-3-yl)oxy)pyridin-3-yl)-1,2,4-oxadiazole], the figure is over 70%.
`O=S(=O)(c1ccccc1F)N1CC[C@H](Oc2ccc(-c3noc(C(F)(F)F)n3)cn2)C1` [Compound 152, (S)-3-(6-((1-((2-fluorophenyl)sulfonyl)pyrrolidin-3-yl)oxy)pyridin-3-yl)-5-(trifluoromethyl)-1,2,4-oxadiazole] gave a pest or weed control at 500 ppm of over 70%.
On the same count and under the same terms, as for `O=S(=O)(c1cccnc1)N1CC[C@H](Oc2ccc(-c3noc(C(F)(F)F)n3)cn2)C1` [Compound 153, (S)-3-(6-((1-(pyridin-3-ylsulfonyl)pyrrolidin-3-yl)oxy)pyridin-3-yl)-5-(trifluoromethyl)-1,2,4-oxadiazole], the figure is over 70%.
For `CC(C)S(=O)(=O)N1CC[C@H](Oc2ccc(-c3noc(C(F)(F)F)n3)cn2)C1` [Compound 155, (S)-3-(6-((1-(isopropylsulfonyl)pyrrolidin-3-yl)oxy)pyridin-3-yl)-5-(trifluoromethyl)-1,2,4-oxadiazole], the pest or weed control at 500 ppm is over 70%.
The same measure, in the same setting: as for `CC(C)(C)OC(=O)N1CC[C@@H](Sc2ccc(-c3noc(C(F)(F)F)n3)cc2)C1` [Compound 157, tert-butyl (R)-3-((4-(5-(trifluoromethyl)-1,2,4-oxadiazol-3-yl)phenyl)thio)pyrrolidine-1-carboxylate], the figure is over 70%.

What is called pest or weed control is the degree to which the test organism was suppressed or injured, in per cent. Lower therefore signals weak suppression.
